≈ marks a conversion by molar mass, not a printed value.

One assay concerns P. aeruginosa biofilms. Kind of assay: Antibiotic susceptibility measurements of surface-attached bacteria / biofilms (live/dead staining, dead cell fraction). The class given is cell-based, Pseudomonas aeruginosa. The conditions noted are these: 600 μg·mL^−1 carbenicillin in PBS for 3 h; growth 6, 10, 15, 24 h; FIG. 18E.
Assay [1] deals with P. aeruginosa strain PA14. The conditions noted are these: cited from earlier work.

Take `CC1(C)S[C@@H]2[C@H](NC(=O)C(C(=O)O)c3ccccc3)C(=O)N2[C@H]1C(=O)O` (some centres unmarked) [carbenicillin]: the “antibiotic susceptibility of surface-attached bacteria at different stages of biofilm growth” value in the assay on P. aeruginosa biofilms was “susceptibility decreased significantly with increasing growth time”. Further, the minimum inhibitory concentration in assay [1] is 128 mg/L (≈ 338 µM).

Values taken from patent US11162902B2, “Metasurfaces comprised of nanosphere oligomers with uniform narrow gap spacings, their method of fabrication and applications in sensing” (The Regents of the University of California, priority 2017, dated 2021).
